Values of other authors as cited in patent EP0341603A2, “Atrial peptide derivatives” (ABBOTT LABORATORIES, priority 1988, dated 1989).
Bridge positions count the residues as written; N and C are the ends. Ends that are not written are not given here.

Conditions: relative to furosemide

## alpha-hANP: alpha-human atrial natriuretic polypeptide isolated from human atrium, a polypeptide consisting of 28 amino acids (SLRRSSCFGGRMDRIGAQSGLGCNSFRY; disulfide 7-23 (inferred); ends not checked; UniProt P01160 124-151, looked up)
  diuretic action, times as strong as that of furosemide: about 1000 times
